The record followed here is patent publication US20070128217A1 (priority 2003, published 2007).

Assay [1] deals with antibodies in sera from SARS patients (sera 1a, 1b, 2, 6, 37, 62, London, SARS-yellow, SARS-green). The class given is binding, human. Also on record: Binding of serum 6 to linear peptides of protein X1 of SARS-CoV Urbani / Binding of serum 37 to linear peptides of protein X1 of SARS-CoV Urbani / Binding of serum 6 to looped/cyclic peptide (PEPSCAN-ELISA) / Binding of serum 37 to looped/cyclic peptide (PEPSCAN-ELISA) / Binding of serum 37 to looped/cyclic peptides of protein X1 of SARS-CoV Urbani / Binding of serum 6 to linear peptides of protein X2 / Binding of serum 37 to linear peptides of protein X2 / Binding of serum 37 to looped/cyclic peptides of protein X2 of SARS-CoV Urbani / Binding of serum 6 to linear peptides of protein M of SARS-CoV Urbani / Binding of serum 37 to linear peptides of protein M of SARS-CoV Urbani / Binding of serum 6 to looped/cyclic peptides of protein M of SARS-CoV Urbani / Binding of serum 37 to looped/cyclic peptides of protein M of SARS-CoV Urbani / Binding of serum 6 to linear peptides of protein X3 of SARS-CoV Urbani / Binding of serum 37 to linear peptides of protein X3 of SARS-CoV Urbani / Binding of serum 37 to looped/cyclic peptides of protein X3 of SARS-CoV Urbani / Binding of serum 6 to linear peptides of protein X4 of SARS-CoV Urbani / Binding of serum 37 to linear peptides of protein X4 of SARS-CoV Urbani / Binding of serum 37 to looped/cyclic peptides of protein X4 of SARS-CoV Urbani / Binding of serum 6 to linear peptides of protein X5 of SARS-CoV Urbani / Binding of serum 37 to linear peptides of protein X5 of SARS-CoV Urbani / Binding of serum 37 to looped/cyclic peptides of protein X5 of SARS-CoV Urbani / Binding of serum 6 to linear peptides of protein N of SARS-CoV Urbani / Binding of serum 37 to linear peptides of protein N of SARS-CoV Urbani / Binding of serum 6 to linear peptide (PEPSCAN-ELISA) / Binding of serum 1a to looped/cyclic peptides of protein N of SARS-CoV Urbani / Binding of serum 1b to looped/cyclic peptides of protein N of SARS-CoV Urbani / Binding of serum 2 to looped/cyclic peptides of protein N of SARS-CoV Urbani / Binding of serum 6 to looped/cyclic peptides of protein N of SARS-CoV Urbani / Binding of serum 37 to looped/cyclic peptides of protein N of SARS-CoV Urbani / Binding of serum 62 to looped/cyclic peptides of protein N of SARS-CoV Urbani / Binding of serum London to looped/cyclic peptides of protein N of SARS-CoV Urbani / Binding of serum SARS-green to looped/cyclic peptides of protein N of SARS-CoV Urbani: unit not given here.

Assay [2] relates to control sera (pooled serum of ten healthy LUMC hospital workers; commercial negative donor pooled serum from the Dutch bloodbank). The class given is binding, human. Also on record: Binding of Control serum LUMC to linear peptides / Binding of Control serum Blood-bank to linear peptides / Binding of Control serum LUMC to looped peptides / Binding of Control Serum Blood-Bank to Looped peptides / Binding of Control serum LUMC to linear peptides of the protein M of SARS-CoV Urbani / Binding of Control serum Blood-bank to linear peptides of the protein M of SARS-CoV Urbani / Binding of Control serum LUMC to looped peptides of the protein M of SARS-CoV Urbani / Binding of Control Serum Blood-Bank to Looped peptides of the protein M of SARS-CoV Urbani: unit not given here.

The subject of assay [3] is rabbit serum obtained by immunizing a rabbit with the SARS-CoV strain Frankfurt 1. The assay is classed as binding. Further details: Binding of a rabbit serum to linear peptides / Binding of a rabbit serum to looped peptides / Rabbit serum linear peptides / Rabbit serum looped peptides / Binding of a rabbit serum to linear peptides of protein N of SARS-CoV Urbani (Rabbit serum linear peptides) / Binding of a rabbit serum to looped/cyclic peptides of protein N of SARS-CoV Urbani (Rabbit serum looped peptides): unit not given here.

QFMMSRRRLLACLCK: in assay [1], the “Binding of serum 1a to linear peptides of protein X2” value is reported as 0.7, the “Binding of serum 1a to looped/cyclic peptides of protein X2 of SARS-CoV Urbani” value was 0.4, the “Binding of serum 1b to linear peptides of protein X2” value is 0.5 and the “Binding of serum 1b to looped/cyclic peptides of protein X2 of SARS-CoV Urbani” value is given as 0.5. In assay [1], the “Binding of serum 2 to linear peptides of protein X2” value is on record as 0.5, the “Binding of serum 2 to looped/cyclic peptides of protein X2 of SARS-CoV Urbani” value amounted to 0.5, the “Binding of serum 6 to linear peptides of protein X2” value is 0.6 and the “Binding of serum 6 to looped/cyclic peptides of protein X2 of SARS-CoV Urbani” value is on record as 0.1. Also, in assay [1], the “Binding of serum 37 to linear peptides of protein X2” value stood at 0.5, the “Binding of serum 37 to looped/cyclic peptides of protein X2 of SARS-CoV Urbani” value was found to be 0.4, the “Binding of serum 62 to linear peptides of protein X2” value is listed as 0.6 and the “Binding of serum 62 to looped/cyclic peptides of protein X2 of SARS-CoV Urbani” value was found to be 0.5. Further, in assay [1], the “Binding of serum London to linear peptides of protein X2” value turned out to be 0.6, the “Binding of serum London to looped/cyclic peptides of protein X2 of SARS-CoV Urbani” value amounted to 0.2, the “Binding of serum SARS-green to linear peptides of protein X2” value turned out to be 0.4 and the “Binding of serum SARS-green to looped/cyclic peptides of protein X2 of SARS-CoV Urbani” value came to 0.4. For the same sequence, in assay [1], the “Binding of serum SARS-yellow to linear peptides of protein X2” value was 0.4 and the “Binding of serum SARS-yellow to looped/cyclic peptides of protein X2 of SARS-CoV Urbani” value was 0.3. In addition, in assay [2], the “Binding of Control Serum Blood-Bank to Looped peptides” value is listed as 0.3, the “Binding of Control serum Blood-bank to linear peptides” value turned out to be 0.7, the “Binding of Control serum LUMC to linear peptides” value stood at 0.5 and the “Binding of Control serum LUMC to looped peptides” value is given as 0.4. Also, in assay [3], the “Binding of a rabbit serum to linear peptides” value came out at 0.5 and the “Binding of a rabbit serum to looped peptides” value came out at 1.9.
Regarding QLALYKGFQFICNLL, in assay [1], the “Binding of serum 1a to looped/cyclic peptide (PEPSCAN-ELISA)” value was 0.5, the “Binding of serum 1b to looped/cyclic peptide (PEPSCAN-ELISA)” value turned out to be 0.4, the “Binding of serum 2 to looped/cyclic peptide (PEPSCAN-ELISA)” value was 0.4 and the “Binding of serum 6 to looped/cyclic peptide (PEPSCAN-ELISA)” value stood at 1.2. Also, in assay [1], the “Binding of serum 37 to looped/cyclic peptide (PEPSCAN-ELISA)” value was 0.5, the “Binding of serum 62 to looped/cyclic peptide (PEPSCAN-ELISA)” value was 0.5, the “Binding of serum London to looped/cyclic peptide (PEPSCAN-ELISA)” value came out at 1.5 and the “Binding of serum SARS-green to looped/cyclic peptide (PEPSCAN-ELISA)” value amounted to 0.3. Moreover, in assay [1], the “Binding of serum SARS-yellow to looped/cyclic peptide (PEPSCAN-ELISA)” value is given as 0.5. Besides, in assay [2], the “Binding of Control Serum Blood-Bank to Looped peptides” value came out at 0.5, the “Binding of Control serum Blood-bank to linear peptides” value is reported as 0.6, the “Binding of Control serum LUMC to linear peptides” value worked out at 0.5 and the “Binding of Control serum LUMC to looped peptides” value was 0.6. Besides, in assay [3], the “Binding of a rabbit serum to linear peptides” value is recorded as 0.3 and the “Binding of a rabbit serum to looped peptides” value worked out at 0.6.
